Consider 4 molecules from patent US12692221B2 (priority 2024, dated 2026).

The target of one assay is COX1(h) (Homo sapiens, UniProt P23219). As to the kind of experiment: Enzyme assay COX1(h), arachidonic acid + ADHP, fluorimetry. The class given is biochemical. The protocol:
(§1) Methods—Enzyme and Uptake Assays: In vitro enzyme and uptake assays were conducted by Eurofins Discovery using human recombinant enzymes expressed in various mammalian and insect cell lines. Enzymatic activity was measured using appropriate substrates or tracers under conditions optimized for each target, as detailed in Table 7. Reactions were incubated at room temperature for a defined duration and terminated according to established protocols. The measured components (either enzymatic products or remaining substrate) were quantified using fluorimetry, photometry, scintillation counting, or LANCE technology, depending on the assay. Assay-specific parameters, including substrate identity, cell line source, incubation time, and detection method, are provided in Table 7.
(§2) All measurements were performed in technical replicates to ensure reproducibility and data quality.
(§3) Results were expressed both as a percentage of control-specific activity and as percent inhibition of control-specific activity. Percent activity was calculated as (measured specific activity/control specific activity)×100, and percent inhibition as 100−[(measured specific activity/control specific activity)×100], based on values obtained in the presence of test compounds. IC50 and EC50 values, along with Hill coefficients (nH), were determined by nonlinear regression analysis of inhibition or concentration-response curves generated from mean replicate values. Hill curve fitting was performed as previously described using software developed at Cerep and validated against SigmaPlot® 4.0 for Windows® (© 1997 by SPSS Inc.).

In a further assay the target is T1, 5-HT3 (h) (Homo sapiens, UniProt P46098).
T1 construct: expressed in transfected cells; host or cells: CHO cells
T1 sequence (P46098 24-478): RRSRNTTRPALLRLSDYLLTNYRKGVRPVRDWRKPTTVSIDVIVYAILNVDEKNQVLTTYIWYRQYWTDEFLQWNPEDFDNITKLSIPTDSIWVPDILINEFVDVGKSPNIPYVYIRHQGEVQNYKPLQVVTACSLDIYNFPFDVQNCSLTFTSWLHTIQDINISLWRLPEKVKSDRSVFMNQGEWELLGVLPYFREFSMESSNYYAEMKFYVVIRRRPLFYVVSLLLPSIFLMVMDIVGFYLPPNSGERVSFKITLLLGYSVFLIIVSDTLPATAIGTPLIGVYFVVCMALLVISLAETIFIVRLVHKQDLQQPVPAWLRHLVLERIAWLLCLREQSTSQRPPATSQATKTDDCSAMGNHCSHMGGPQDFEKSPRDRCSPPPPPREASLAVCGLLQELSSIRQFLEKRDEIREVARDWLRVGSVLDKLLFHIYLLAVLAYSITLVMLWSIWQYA
The experiment in a line: Radioligand binding 5-HT3 (h) (antagonist radioligand), [^3H]BRL 43694, CHO cells. As to the method:
(§4) Methods—Binding Assays: In vitro binding assays were performed using human recombinant receptors expressed in mammalian cell lines. Receptors were expressed in either HEK-293 or CHO cells depending on the target, and assay conditions (radioligand, concentration, nonspecific competitor, temperature, and incubation time) were optimized for each receptor. All assays were conducted in triplicate, and specific binding was quantified by scintillation counting as the detection method for each listed assay.
(§5) Specific binding was expressed as a percentage of control-specific binding, and percent inhibition was calculated using the formula in Ex. 8 above. Half-maximal inhibitory concentrations (IC50) were determined by non-linear regression analysis of the inhibition curves using the Hill equation (see Ex. 8). Inhibition constants (Ki) were calculated using the Cheng-Prusoff equation (see Ex. 8). KD values used in these calculations had been previously established for each receptor under the assay conditions (see Table 6). Data analysis was performed using software developed at Cerep and validated against SigmaPlot 4.0 for Windows.

Another assay concerns the target T2, delta (DOP) (h) (Homo sapiens, UniProt P41143).
T2 construct: expressed in transfected cells; host or cells: Chem-1 RBL
The experiment in a line: Radioligand binding delta (DOP) (h) (agonist radioligand), [^3H]DALE, Chem-1 RBL. The conditions noted are these: delta (DOP) (h) (agonist radiolig.). As to the method: as §4, §5

A further assay deals with T3, 5-HT1B (h) (Homo sapiens, UniProt P28222).
T3 construct: expressed in transfected cells; host or cells: Chem-1 RBL cells
The experiment in a line: Radioligand binding 5-HT1B (h) (antagonist radioligand), [^3H]GR125743, Chem-1 RBL cells.

Another assay addresses T4, M1 (h) (Homo sapiens, UniProt P11229).
T4 construct: expressed in transfected cells; host or cells: CHO cells
T4 sequence (P11229 1-460): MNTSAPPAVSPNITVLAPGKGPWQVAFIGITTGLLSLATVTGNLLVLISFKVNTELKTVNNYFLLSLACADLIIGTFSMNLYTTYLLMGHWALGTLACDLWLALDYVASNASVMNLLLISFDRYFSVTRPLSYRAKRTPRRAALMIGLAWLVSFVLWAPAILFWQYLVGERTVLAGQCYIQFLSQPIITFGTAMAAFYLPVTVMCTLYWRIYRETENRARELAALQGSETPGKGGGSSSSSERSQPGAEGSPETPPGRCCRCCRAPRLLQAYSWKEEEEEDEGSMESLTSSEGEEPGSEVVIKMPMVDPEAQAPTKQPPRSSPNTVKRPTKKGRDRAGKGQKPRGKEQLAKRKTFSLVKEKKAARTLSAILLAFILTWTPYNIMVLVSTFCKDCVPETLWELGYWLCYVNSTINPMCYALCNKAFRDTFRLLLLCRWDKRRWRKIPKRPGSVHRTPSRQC
As to the kind of experiment: Radioligand binding M1 (h) (antagonist radioligand), [^3H]pirenzepine, CHO cells. As to the method:
as §4, §5

The target of another assay is T5, CB2 (h) (Homo sapiens, UniProt P34972).
T5 construct: expressed in transfected cells; host or cells: CHO cells
As to the kind of experiment: Radioligand binding CB2 (h) (agonist radioligand), [^3H]WIN 55212-2, CHO cells. The protocol:
as §4, §5

For a further assay, the system named is Na^+ channel (site 2). Conditions: Na+ channel (site 2) (antagonist radioligand); footnote: Sodium Channel Site2 (Non-selective) Rat Ion Channel Batrachotoxin Mass Spectr. Binding.
In the next assay the target is T6, COX2(h) (Homo sapiens, UniProt P35354).
T6 construct: host or cells: Sf9 cells
T6 sequence (P35354 18-604): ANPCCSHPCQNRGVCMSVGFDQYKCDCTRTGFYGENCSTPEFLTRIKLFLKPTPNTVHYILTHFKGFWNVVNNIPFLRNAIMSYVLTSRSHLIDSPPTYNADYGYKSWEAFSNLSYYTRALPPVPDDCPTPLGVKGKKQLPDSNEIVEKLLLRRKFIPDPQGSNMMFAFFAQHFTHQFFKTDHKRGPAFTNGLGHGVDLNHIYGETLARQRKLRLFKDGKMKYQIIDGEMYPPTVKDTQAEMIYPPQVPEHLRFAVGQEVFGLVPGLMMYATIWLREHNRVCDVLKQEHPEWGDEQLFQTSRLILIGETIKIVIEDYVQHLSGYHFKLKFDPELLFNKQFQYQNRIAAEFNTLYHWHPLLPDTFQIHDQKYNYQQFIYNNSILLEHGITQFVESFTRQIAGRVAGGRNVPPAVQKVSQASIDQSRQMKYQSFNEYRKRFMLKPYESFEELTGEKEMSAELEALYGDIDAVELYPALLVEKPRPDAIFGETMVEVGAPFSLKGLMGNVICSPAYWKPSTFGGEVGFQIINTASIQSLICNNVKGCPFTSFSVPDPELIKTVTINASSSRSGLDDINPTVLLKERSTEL
As to the kind of experiment: Enzyme assay COX2(h), arachidonic acid + ADHP, fluorimetry. The class given is biochemical. The protocol:
as §1, §2, §3

In the next assay the target is T7, Lck kinase (h) (Homo sapiens, UniProt P06239).
T7 construct: host or cells: insect cells
The experiment in a line: Enzyme assay Lck kinase (h), LANCE. The class given is biochemical. As to the method: as §1, §2, §3
A general note: Time-resolved FRET reads energy transfer from a long-lived donor to a nearby acceptor.

Chain of COX1(h) (P23219 24-599): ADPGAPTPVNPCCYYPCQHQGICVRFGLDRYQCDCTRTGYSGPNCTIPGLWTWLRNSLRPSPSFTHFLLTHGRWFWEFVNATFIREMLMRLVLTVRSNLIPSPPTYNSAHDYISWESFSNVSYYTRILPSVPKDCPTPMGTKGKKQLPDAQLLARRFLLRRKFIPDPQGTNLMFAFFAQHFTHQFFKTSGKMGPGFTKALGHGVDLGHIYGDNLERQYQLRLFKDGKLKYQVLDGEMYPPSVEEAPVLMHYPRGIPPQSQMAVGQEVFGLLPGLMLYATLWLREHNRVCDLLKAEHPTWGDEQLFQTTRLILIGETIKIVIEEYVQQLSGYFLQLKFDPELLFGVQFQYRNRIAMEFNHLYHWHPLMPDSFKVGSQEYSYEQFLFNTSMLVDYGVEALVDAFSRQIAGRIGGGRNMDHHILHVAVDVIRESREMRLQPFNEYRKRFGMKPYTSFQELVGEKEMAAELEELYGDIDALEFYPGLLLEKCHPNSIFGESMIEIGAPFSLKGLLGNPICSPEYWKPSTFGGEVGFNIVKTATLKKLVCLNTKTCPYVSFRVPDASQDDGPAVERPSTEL
T5 sequence (P34972 whole entry): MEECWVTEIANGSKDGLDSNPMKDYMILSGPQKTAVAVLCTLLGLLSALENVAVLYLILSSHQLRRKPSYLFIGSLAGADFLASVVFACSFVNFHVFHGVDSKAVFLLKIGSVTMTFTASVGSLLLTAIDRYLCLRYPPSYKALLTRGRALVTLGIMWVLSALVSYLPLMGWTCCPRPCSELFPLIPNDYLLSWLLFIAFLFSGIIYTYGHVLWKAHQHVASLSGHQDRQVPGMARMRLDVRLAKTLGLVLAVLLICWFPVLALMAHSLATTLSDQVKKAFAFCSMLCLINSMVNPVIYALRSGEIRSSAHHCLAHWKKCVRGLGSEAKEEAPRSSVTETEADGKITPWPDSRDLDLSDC
T7 sequence (P06239 whole entry): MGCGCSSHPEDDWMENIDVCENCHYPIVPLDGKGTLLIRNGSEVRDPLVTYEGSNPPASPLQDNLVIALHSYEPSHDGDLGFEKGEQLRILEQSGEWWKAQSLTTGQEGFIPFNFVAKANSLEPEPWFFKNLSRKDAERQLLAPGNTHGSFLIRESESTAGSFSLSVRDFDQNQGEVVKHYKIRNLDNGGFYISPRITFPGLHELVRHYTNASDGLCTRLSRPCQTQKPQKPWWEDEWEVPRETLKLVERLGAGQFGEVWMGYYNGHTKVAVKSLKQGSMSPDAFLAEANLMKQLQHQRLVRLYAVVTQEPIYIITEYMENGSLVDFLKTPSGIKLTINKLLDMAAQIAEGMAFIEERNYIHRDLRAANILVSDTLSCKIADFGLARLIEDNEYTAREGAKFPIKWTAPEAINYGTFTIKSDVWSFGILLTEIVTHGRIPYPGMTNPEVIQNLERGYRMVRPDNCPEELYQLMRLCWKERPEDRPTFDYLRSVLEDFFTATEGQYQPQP
T2 sequence (P41143 whole entry): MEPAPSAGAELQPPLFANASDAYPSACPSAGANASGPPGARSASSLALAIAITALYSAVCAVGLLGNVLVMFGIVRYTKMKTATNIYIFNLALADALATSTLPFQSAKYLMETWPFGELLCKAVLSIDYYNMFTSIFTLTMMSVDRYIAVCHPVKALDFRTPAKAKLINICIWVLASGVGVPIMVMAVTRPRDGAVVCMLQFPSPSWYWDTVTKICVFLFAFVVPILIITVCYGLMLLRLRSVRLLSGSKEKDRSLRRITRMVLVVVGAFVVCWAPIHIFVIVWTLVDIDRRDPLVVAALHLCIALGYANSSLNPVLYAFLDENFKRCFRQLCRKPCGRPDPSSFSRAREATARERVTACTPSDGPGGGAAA
T3 sequence (P28222 whole entry): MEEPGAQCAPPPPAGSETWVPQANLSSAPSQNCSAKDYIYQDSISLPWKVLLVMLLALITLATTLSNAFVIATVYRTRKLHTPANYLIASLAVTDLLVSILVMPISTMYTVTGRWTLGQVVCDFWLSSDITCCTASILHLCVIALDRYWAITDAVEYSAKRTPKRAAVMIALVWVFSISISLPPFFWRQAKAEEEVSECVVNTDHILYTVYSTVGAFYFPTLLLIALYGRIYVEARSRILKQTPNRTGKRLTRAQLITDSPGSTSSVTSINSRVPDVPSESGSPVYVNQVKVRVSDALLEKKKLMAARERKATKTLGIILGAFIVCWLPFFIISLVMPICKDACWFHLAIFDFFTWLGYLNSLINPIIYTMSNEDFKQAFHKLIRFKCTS

With `COCc1cc(CCN)c(O)cc1CC(C)C` [2CiBu-2OH-5MM, 2-(2-aminoethyl)-5-isobutyl-4-(methoxymethyl)phenol], the “Mean Percent Inhibition of Control Specific Binding” value (“Mean Percent Inhibition” below) at COX1(h) is recorded as −37.4%; at 5-HT3 (h), −3.9%; at delta (DOP) (h) it was 19.5%; on 5-HT1B (h), 12.6%; at M1 (h), 4.9%; at CB2 (h) it was −6.0%. Also, the “Mean Percent Inhibition” value was 66% with Na^+ channel (site 2), 10.2% at COX2(h) and 12.8% at Lck kinase (h).
For the molecule `COCCc1cc(CCN)c(OC)cc1Br` [Compound 2CB-5ME, reference compound], the “Mean Percent Inhibition” value is −4.7% at COX1(h); −1.6% at 5-HT3 (h); 9.7% on delta (DOP) (h); 91.4% on 5-HT1B (h); 55.4% on M1 (h); −22.8% at CB2 (h). Moreover, the “Mean Percent Inhibition” value in the assay on Na^+ channel (site 2) is reported as 46.9%; at COX2(h), −10.4%; at Lck kinase (h), 23.3%.
As for `COCc1cc(CCN)c(OC)cc1Br` [Compound 2CB-5MM, 2-(4-bromo-2-methoxy-5-(methoxymethyl)phenyl)ethan-1-amine], the “Mean Percent Inhibition” value is reported as 0.3% at COX1(h); 11.6% at 5-HT3 (h); 8.5% at delta (DOP) (h); 74.2% at 5-HT1B (h); 43.4% on M1 (h); −14.9% at CB2 (h). The “Mean Percent Inhibition” value in the assay with Na^+ channel (site 2) was 21.6%; on COX2(h), −8.0%; on Lck kinase (h), 5.9%.
On to `COCc1cc(CCN)c(OC)cc1CC(C)C` [Compound 2CiBu-5MM, 2-[4-isobutyl-2-methoxy-5-(methoxymethyl)phenyl]ethanamine], for which the “Mean Percent Inhibition” value on COX1(h) is recorded as 13.8%; on 5-HT3 (h), 2.6%; on delta (DOP) (h), 11.9%; at 5-HT1B (h), 57.3%; on M1 (h) it was 52.6%; on CB2 (h), 17.8%. Moreover, the “Mean Percent Inhibition” value with Na^+ channel (site 2) is recorded as 70.4%; at COX2(h), −7.0%; at Lck kinase (h), −6.6%.
